For one experiment, the system named is Bacillus subtilis. Briefly: Antimicrobial activity against Bacillus subtilis at 200 ug/disk. It is filed as functional, organism-based.
The nature of experiment [1]: Cytotoxicity against human NCI60 cells. It is filed as functional.

Active and inactive are the calls of the source. The rule behind the calls is not given here.

The term GI50 denotes the concentration at which growth is held to half of that of the control. `CC(C)=CC[C@@]12C[C@@H]3C(=O)O[C@H](CC(C)C)C(=O)N3[C@@H]1Nc1ccccc12` [MOLLENINE A]: the outcome in the experiment on Bacillus subtilis was Active. In experiment [1], this molecule registered a 50% growth inhibitory concentration (GI50) of 31 µM.

The values are drawn from ChEMBL document CHEMBL1150908, “Mollenines A and B: new dioxomorpholines from the ascostromata of Eupenicillium molle” (1998).
